We go through two compounds from patent US6797721B2, “Phorboxazole derivatives for treating cancer” (Parker Hughes Institute, priority 1999, dated 2004).

Assay [1] deals with NALM-6 human B-lineage acute lymphoblastic leukemia cells. In words: MTT cytotoxicity assay, NALM-6. As to conditions: NALM-6 (leukemia, ALL), 24-36 hours, read-out: IC50 [MTT]. In kind it is cell-based. The method, then:
(§1) The cytotoxicity assay of synthetic Phorboxazole A and various derivative compounds against human tumor cells was performed using the MTT (3-[4,5-dimethylthiazol-2-yl]-2,5-diphenyl tetrazolium bromide) assay (Boehringer Mannheim Corp., Indianapolis, Ind.). Briefly, exponentially growing brain tumor cells were seeded into a 96-well plate at a density of 2.5×10^4 cells/well and incubated for 36 hours at 37° C. prior to drug exposure. On the day of treatment, culture medium was carefully aspirated from the wells and replaced with fresh medium containing the various phorboxazole A derivative compounds as well as the tyrosine kinase inhibitory isoflavone genistein (GEN) at concentrations ranging from 0.1 to 250 μM. Triplicate wells were used for each treatment.
(§2) Human glioblastoma cells U373 (brain cancer), human B-lineage acute lymphoblastic leukemia cells NALM-6, and human breast cancer cells BT-20 were obtained from American Type Culture Collection (Rockville, Md.) and maintained as a continuous cell line in Dulbecco's modified Eagles's medium supplemented with 10% fetal bovine serum and antibiotics.
(§3) The cells were incubated with the various compounds for 24-36 hours at 37° C. in a humidified 5% CO2 atmosphere. To each well, 10 μl of MTT (0.5 mg/ml final concentration) was added and the plates were incubated at 37° C. for 4 hours to allow MTT to form formazan crystals by reacting with metabolically active cells. The fonnazan crystals were solubilized overnight at 37° C. in a solution containing 10% SDS in 0.01 M HCl. The absorbance of each well was measured in a microplate reader (Labsystems) at 540 nm and a reference wavelength of 690 nm. To translate the OD540 values into the number of live cells in each well, the OD540 values were compared to those on standard OD540-versus-cell number curves generated for each cell line. The percent survival was calculated using the formula: [formula]
(§4) The IC50 values were calculated by non-linear regression analysis.

The test system of assay [2] is BT-20 human breast cancer cells. In words: MTT cytotoxicity assay, BT-20. In kind it is cell-based. The conditions noted are these: BT-20 (breast cancer), 24-36 hours, read-out: IC50 [MTT]. The method, then: as §1, §2, §3, §4
Assay [3] has as its system U373 human glioblastoma cells. The experiment in a line: MTT cytotoxicity assay, U373. The conditions noted are these: U373 MG, U373 (brain tumor, glioblastoma), 24-36 hours, read-out: IC50 [MTT]. The format is cell-based. The method, then: as §1, §2, §3, §4
The test system of assay [4] is NALM-6 B-lineage ALL cells. The experiment in a line: Clonogenic assay, NALM-6. The format is cell-based, human. The conditions noted are these: 7 days; for inhibition at 0.001 µM / inhibition at 0.01 µM / inhibition at 0.1 µM: Homo sapiens, 168 h, read-out: Inhibition of clonogenic growth. The method, then: (§5) The growth-inhibiting activity of the synthetic Phorboxazole A and the synthesized derivatives was tested in clonogenic assays. Cancer cells were treated with 1 nM, 10 nM, and 100 nM doses of synthetic Phorboxazole A or derivatives of phorboxazole A. Treated cells included U373 human glioblastoma cells, NALM-6, human B-lineage acute lymphoblastic leukemia cells, and BT-20 human breast cancer cells. The cancer cells were resuspended in clonogenic medium consisting of alpha-MEM supplemented with 0.9% methylcellulose, 30% fetal bovine serum, and 50 μM 2-mercaptoethanol. Cells were plated in duplicate Petri dishes at 100,000 cells/mL/dish and cultured in a humidified 5% CO2 incubator for 7 days. Cancer cell colonies were enumerated on a grid using an inverted phase microscope of high optical resolution. Results were expressed as % inhibition of clonogenic cells at a particular concentration of the test agent using the formula:
(§6) % Inhibition=(1−Mean # of colonies [Test]/Mean # of colonies [Control]×100.

Assay [5] has as its system BT-20 human breast cancer cells. The experiment in a line: Clonogenic assay, BT-20. In kind it is cell-based. The conditions noted are these: 7 days; for inhibition at 0.001 µM / inhibition at 0.01 µM / inhibition at 0.1 µM: Homo sapiens, 168 h, read-out: Inhibition of clonogenic growth. How it is done:
as §5, §6

Assay [6] concerns U373 human glioblastoma cells. The experiment in a line: Clonogenic assay, U373. The format is cell-based. As to conditions: 7 days; for inhibition at 0.01 µM / inhibition at 0.1 µM: Homo sapiens, U373 MG, 168 h, read-out: Inhibition of clonogenic growth. How it is done: as §5, §6
Assay [7] concerns human breast cancer cell line BT-20. The experiment in a line: In situ detection of apoptosis (nick-end-labeling, confocal microscopy). The format is cell-based. As to conditions: final concentration of 100 μM, 24 hours. How it is done:
The synthetic Phorboxazole A and the synthetic analogs were also assayed for apoptosis-inducing activity. Assay for apoptosis was performed by the in situ nick-end-labeling method using an ApopTag in situ detection kit (Oncor, Gaithersburg, Md.) according to the manufacturer's reconmmendations. Immunofluorescence was used to examine the morphologic features of human breast cancer cell line BT-20 (American Type Culture Collection Rockville, Md.) treated with the novel phorboxazole A derivatives of the present invention.
Cells were trypsinized from rapidly growing tissue culture flasks and seeded onto sterile 22 mm^2 coverslips in 6-well culture plates. Cells on coverslips were returned to the incubator for 24 hours prior to treatment. The phorboxazole A derivatives were added to the cells from a stock solution made in DMSO to a final concentration of 100 μM. Final DMSO concentration were kept at 0.1% in both test samples and controls. Cells were returned to a 37° C. incubation for 24 hours before further processing. At 24 hours, coverslips were fixed in −20° C. methanol for 15 minutes followed by a 15 minute incubation in phosphate buffered saline +0.1% Triton X-100 (PBS-Tx). Coverslips were then incubated with a monoclonal antibody against α-tubulin (Sigma Chemical Co., St. Louis, Mo.) at a dilution of 1:1000 for 40 minutes in a humidified chamber at 37° C. Coverslips were washed for 15 minutes in PBS-Tx followed by a 40 minute incubation with goat anti-mouse IgG antibody conjugated to FITC (Amersham Corp., Arlington Heights, Ill.). The coverslips were again rinsed in PBS-Tx and incubated with 5 μM TOTO-3 (Molecular Probes, Eugene, Oreg.) for 20 minutes to label the nuclear DNA. Coverslips were immediately inverted onto slides in Vectashield (Vector Labs, Burlingame) to prevent photobleaching, sealed with nail varnish and stored at 4° C.
Slides were examined using a Bio-Rad MRC-1024 Laser Scanning Confocal Microscope mounted on a Nikon Eclipse E800 upright microscope with high numerical aperture objectives. […]

A further assay deals with leukemia NALM-6 cells. The experiment in a line: Mitochondrial transmembrane potential assay (DiIC1(5) staining). In kind it is cell-based, human. As to conditions: 2.5 nM, 5 nM or 10 nM, 72 hours. How it is done:
FIG. 2 are graphs showing the effect of synthetic phorboxazole A and phorboxazole A derivatives on the mitochondrial transmembrane potentials of leukemia NALM-6 cells.
Cells were incubated with 2.5 nM, 5 nM or 10 nM of phorboxazole A, 33-O-methyl-phorboxazole A or 45,46-dehydrobromo-phorboxazole A for 72 hours, stained with DiICl (5) to assess the mitochondrial membrane potential (Δψm) and then analyzed with a cell sorter equipped with a HeNe laser.

In assay [8] the test system is U373 glioblastoma spheroids. In words: Cell migration from glioblastoma spheroids. In kind it is cell-based, human. As to conditions: U373 spheroids on fibronectin-coated coverslips; 48 hours; varied concentrations. The method, then:
U373 glioblastoma spheroids of 200 to 400 micrometers in diameter were treated with synthetic Phorboxazole A, 33-O-Methyl-phorboxazole A, and 45,46-dehydrobromo-phorboxazole A in 0.1% DMSO at varied concentrations. Cells were incubated with the inhibitor or with control DMSO in the absence of inhibitor compound for two hours, and then transferred to fibronectin-coated coverslips. The spheroids were then incubated in DMEM containing […] at 37° C. for 48 hours.
In addition, multi-cellular U373 glioblastoma spheroids of 200-400 μm diameter were incubated with 500 nM, 250 nM, 125 nM, 62.5 nM and […] phorboxazoleA, 29-phorboxamide A, 18-methyl phorboxylate and 31-methyl phorboxylate in 0.1% DMSO or 0.1% DMSO alone for 2 hours and transferred to fibronectin-coated coverslips. The spheroids were then incubated in MEM containing respective compounds and cultured for 48 hours at 37° C. At the end of incubation, the spheroids were fixed and stained with Hema-3 solutions. The distance of migrated cells from spheroids was measured using a mircoscope and micrometer.

With `C=C1C[C@@H]2C[C@@H]3C[C@@H](O)C[C@@H](O3)c3coc(n3)/C=C/C[C@H]3O[C@@H](/C(C)=C/c4coc(C[C@]5(OC)C[C@H](OC)C[C@H]([C@H](O)/C=C(C)/C=C/[C@@H](C/C=C/Br)OC)O5)n4)[C@H](C)[C@@H](OC(=O)/C=C\C[C@@H](C1)O2)[C@H]3C` [Compound 9, 33-O-methyl-Phorboxazole A], the IC50 in assay [1] was 5.2 nM; in assay [2], 11.3 nM; in [3] it was 29.2 nM. The “Mean Number Colonies/10^4 cells” value in assay [4] (1 nM) amounted to 1760; in [4] (10 nM) it was 422; in assay [4] (100 nM), 0; in assay [5] (1 nM), 1824; in [5] (10 nM), 1430; in assay [5] (100 nM), 0. Moreover, the results for the “Mean Number Colonies/10^4 cells” value in assay [6] (10 nM) and in assay [6] (100 nM) were 578 and 0, respectively. The figures for the inhibition at 0.001 µM in [4] (1 nM) and in assay [5] (1 nM) were 14% and 0%, respectively. Moreover, the inhibition at 0.01 µM in assay [4] (10 nM) came out at 79.4%; in [5] (10 nM), 6.2%; in assay [6] (10 nM) it was 11.9%. Further, the inhibition at 0.1 µM was greater than 99.9% in assay [4] (100 nM), greater than 99.9% in assay [5] (100 nM) and greater than 99.8% in assay [6] (100 nM). For the same compound, the Apoptosis-inducing activity entry in assay [7] is “apoptotic activity”. Further, the “Depolarized mitochondria (mitochondrial membrane potential)” value in the assay on leukemia NALM-6 cells is “progressive increase in depolarized mitochondria”. Moreover, the “Inhibition of cell migration from the spheroid” value in assay [8] is recorded as “significantly inhibited cell migration”.

Regarding `C#CC[C@H](/C=C/C(C)=C/[C@@H](O)[C@H]1C[C@@H](OC)C[C@@](O)(Cc2nc(/C=C(\C)[C@@H]3O[C@@H]4C/C=C/c5nc(co5)[C@H]5C[C@H](O)C[C@@H](C[C@H]6CC(=C)C[C@H](C/C=C\C(=O)O[C@@H]([C@H]4C)[C@H]3C)O6)O5)co2)O1)OC` [Compound 8, 45,46-Dehydrobromo-Phorboxazole A], the IC50 came out at 4.8 nM in [1], 12.6 nM in assay [2] and 27.4 nM in [3]. Further, the “Mean Number Colonies/10^4 cells” value in assay [4] (1 nM) is on record as 2116; in assay [4] (10 nM), 293; in assay [4] (100 nM), 0; in assay [5] (1 nM) it was 1540; in assay [5] (10 nM), 1062; in assay [5] (100 nM), 0. Moreover, the “Mean Number Colonies/10^4 cells” value in assay [6] (10 nM) was 586; in [6] (100 nM), 144. In addition, the inhibition at 0.001 µM in assay [4] (1 nM) and in [5] (1 nM) was 0% throughout. The inhibition at 0.01 µM was 85.7% in assay [4] (10 nM), 30.3% in [5] (10 nM) and 10.7% in assay [6] (10 nM). The figures for the inhibition at 0.1 µM in assay [4] (100 nM), in [5] (100 nM) and in [6] (100 nM) were greater than 99.9%, greater than 99.9% and 78.1%, respectively. For the same compound, in assay [7], the Apoptosis-inducing activity entry was “apoptotic activity”. The “Depolarized mitochondria (mitochondrial membrane potential)” value in the assay with leukemia NALM-6 cells was “progressive increase in depolarized mitochondria”. Besides, the “Inhibition of cell migration from the spheroid” value in [8] is listed as “significantly inhibited cell migration”.
